From patent US20230121547A1, “A COMBINATION THERAPY WITH NIROGACESTAT AND A BCMA-DIRECTED THERAPY AND USES THEREOF” (SpringWorks Therapeutics Inc., priority 2020, published 2023)

Experiment: physchem
Conditions: organic solvent or mixture, thermodynamic from solid
Procedure: Weighed samples of material were treated with aliquots of specified solvents at ambient temperature. Samples were typically sonicated between additions to facilitate dissolution. Complete dissolution was observed through visual inspection. Solubility was calculated based on the total amount of solvent added to achieve complete dissolution and may be greater than the value reported due to incremental solvent addition and the inherent kinetics of dissolution. If dissolution was not observed, values are reported as “less than”. If dissolution was observed upon the first addition of solvent, values are reported as “greater than”.

Question: For `Br.Br.CCC[C@H](N[C@H]1CCc2cc(F)cc(F)c2C1)C(=O)Nc1cn(C(C)(C)CNCC(C)(C)C)cn1` [nirogacestat dihydrobromide, (S)-2-(((S)-6,8-difluoro-1,2,3,4-tetrahydronaphthalen-2-yl)amino)-N-(1-(2-methyl-1-(neopentylamino)propan-2-yl)-1H-imidazol-4-yl)pentanamide], which solubility is on record?
Answer: The solubility was under 1000 µg/mL.
